Entries after “also recorded” stand apart in the source; their conditions may differ.

One series concerns BDF1 mice. Nature of the series: Toxicity of FU and FP in BDF1 mice. The class given is in vivo. Conditions: for Death/Total: Day 1,2,3,4,5. As to the method: (§1) BDF1 mice were administered daily oral dosages of either 50, 75 or 100 mg/kg of FU or 100, 150 or 200 mg/kg of FP. The survival rates of each are presented in chart and graphic forms in Table VI and FIGS. 2 and 3.
Series [1] can be described thus: Toxicity of FU and FP in BDF1 mice. In kind it is in vivo. Conditions: mouse, in vivo, po, daily, Day 1,2,3,4,5. How it is done:
as §1

A further series relates to Transgenic mice. Briefly: Treatment of transgenic mice expressing SV40 large tumor antigen. In kind it is in vivo, mouse.
Another series deals with P388-R leukemia cells. Briefly: Survival time of mice bearing P388-R leukemia cells. Conditions: for Cures/Total / ILS (increase in life span over controls): daily on Day 1,2,3,4,5. In kind it is in vivo, mouse. As to the method: (§2) Mice were injected with 100,000 P388-R leukemia cells to induce a leukemia. These cells were resistant to Adriamycin. Daily treatments of 25 and 50 mg/kg FU and 50 and 100 mg/kg FP were given orally to these leukemic mice and the duration of survival was measured. The results are given in tabular and graphic form in Table VII and FIG. 4.
Inoculum: 10^6 P388R cells into each mouse (i.p.)

The subject of series [2] is leukemia and colon cancer. Nature of the series: Therapeutic effectiveness of FP versus FU in leukemia and colon cancer. The class given is in vivo, mouse. Conditions: oral FP.
Text: There are other occasions besides the treatment of liver-associated diseases when the administration of a prodrug will be preferred to the administration of the bio-affecting compound which is formed from such prodrugs. For example, many drugs are not orally administrable for any of a variety of reasons. Oral administration of a prodrug from which the active compound is released in the liver will avoid most of the disadvantages of oral administration of the active compound. Thus, for example, FU is a well-known anti-cancer drug which cannot be administered orally. FP is a prodrug which is metabolizabie by hepatic aldehyde oxidase to FU. FP may be given orally to a subject.
as §2
(§3) Mice were injected with colon 38 cells and were either not treated or treated with daily treatments of 25 and 50 mg/kg FU and 50 and 100 mg/kg FP were given orally to the mice and the change in tumor weight was measured over time.

In the next series the test system is aldehyde oxidase. Briefly: Substrate specificity of the conversion of RPdR to RUdR. In kind it is in vitro ADME, rat. Conditions: substrate 180 μM; 2 to 4 separate experiments; in nmol/mg/min. How it is done: Rat hepatic tissue was washed with ice-cold 1.15% KCl and blotted dry. The tissue was then homogenized with a tissue homogenizer, in a volume of 1.15% KCl that was 3 times the tissue weight, to form a 25% (w/v) homogenate. The homogenate was then centrifuged at 10,000 g for 10 minutes at 4° C. The resulting supernatant was filtered through Miracloth (similar to cheese cloth) then dialyzed overnight against 50 mM Tris-HCl buffer pH 7.5 and stored at -80° C. before use. Rat hepatocytes were obtained by a perfusion technique then the cells were extracted with 10 mM phosphate buffer, pH 7.5, containing 1M KCl and dialyzed for 4 hours against 50 mM Tris-HCl buffer pH 7.5.
For the standard assay condition, the reaction mixture contained 50 mM Tris-HCl, pH 7.5, 1 mM EDTA, 180 μM of IPdR (or its analogs) and approximately 0.01 mg protein of 10,000 g supernatant of tissue homogenate in a final volume of 500 μl and the incubation was at 37° C. for 10 minutes unless specified otherwise. 300 μl of reaction mixture was removed at the end of incubation and mixed with 630 μl acetonitrile then agitated. The precipitated protein were removed by centrifugation and the supernatant was lyophilized to dryness. The samples were reconstituted to the original aliquot volume with the HPLC mobile phase buffer and analyzed on a Alltech RP-18 column. IPdR, IUdR and IU were detected at a UV absorption wavelength of 230 nm, and IPdR was also detected at a UV absorption wavelength of 335 nm. The mobile phase was 10% acetonitrile/90%mM ammonium acetate, pH 6.8 and the flow rate was 1 ml/minute. Standard curves of IPdR and IUdR were established from the integration value of known concentrations.
Several 2-pyrimidinone deoxyribose analogs were examined for the conversion to their deoxyuridine counterparts. […] Nevertheless the relative Vmax for IPdR in the reaction at pH 7.5 and pH 9.5 is the same. […] The synthetic substrates for aldehyde oxidase appear to be better than its natural substrates, N^1 -methylnicotinamide and acetaldehyde, as judged by the potency of inhibition of N^1 -methylnicotinamide and acetaldehyde to the IPdR oxidation reaction (Table IV). The rate of reactivity of the liver enzyme with different IPdR analogs follows the order EPdR, IP, IPdR, 5-bromo-2-pyrimidinone deoxyribose (BPdR) and 5-methyl-2-pyrimidinone deoxyribose (MPdR) or 5-ethyl-2-pyrimidinone deoxyribose (EtPdR) (Table V). Electronegative substituents in the 5-position seemed to increase the substrate activity in this oxidation reaction.
Substrate specificity of the conversion of […]

Another series concerns colon 38 cells. Nature of the series: Colon 38 tumor weight in mice. The class given is in vivo, mouse. Conditions: FU 25 and 50, FP 50 and 100 mg/kg daily oral. How it is done:
as §3

Series [3] deals with hepatic aldehyde oxidase. Nature of the series: Conversion of prodrugs to active compound in vivo. The text has this:
(§4) As most nucleosides and nucleoside bases include keto groups in their formula and many are structurally related to the structure of uracil, it is expected that bio-affecting compounds which are analogs of nucleosides and nucleoside bases are prime candidates for bio-affecting compounds for which prodrugs in accordance with the present invention can be designed, metabolizable by hepatic aldehyde oxidase into such compounds. Thus, in addition to uracil and uridine analogs, analogs of other nucleosides and nucleoside bases, such as cytidine, guanosine, 6-azauridine and 8-azaguanine analogs, may be used as the basis of the formation of prodrugs in accordance with the present invention. Examples of bio-affecting compounds in this category include ddG, DHPG, ACV, ddI, D4T and AZT.

Series [4] concerns hepatic aldehyde oxidase. Briefly: Metabolism of prodrugs by hepatic aldehyde oxidase in vitro / in vivo. In kind it is in vitro ADME.
Text: as §4

Procedure for Transgenic mice: Transgenic mice obtained according to the method of Sepulveda et al., Cancer Research 49:6108-6117 (1989) were administered beginning at nine weeks after birth in a female and male, wherein the treatment group received 100 mg/kg two times per day, once per week.

`Oc1ncc(F)cn1` [FP, 5-fluoro-2-pyrimidinone]: the Death/Total with BDF1 mice (100 mg/kg p.o.) was 5/5; with BDF1 mice (150 mg/kg p.o.), 4/5; in the series on BDF1 mice (200 mg/kg p.o.) it was 0/5. In the series with BDF1 mice (oral, even when higher dosages were administered), the “toxicity of FP compared with FU” value was “considerably less”. In addition, the LD50 (in general, the dose at which mortality reaches 50%) in series [1] amounted to 180 mg/kg. For the same molecule, in the series on Transgenic mice (after week 13), the “weight gain, male and female” value is given as “significantly decreased weight gain”. In addition, the “body weight increase, female” value in the series with Transgenic mice (female, 100 mg/kg two times per day, once per week) is listed as “slower increase in body weight”. Also, in the series with Transgenic mice (female, versus control, which died at week 16), the “survival, female” value is reported as “lived longer; also recorded: survived the control rat”. In addition, in the series on Transgenic mice (male, 100 mg/kg two times per day, once per week), the “body weight increase, male” value is listed as “slower increase in body weight”. For the same molecule, the “survival, male” value in the series with Transgenic mice (male, inferred from slower body weight increase) is “longer survival than control”. Further, the Cures/Total in the series on P388-R leukemia cells (50 mg/kg oral) and in the series with P388-R leukemia cells (100 mg/kg oral) was 0/5 in each case. Besides, the “ILS (increase in life span over controls)” value was determined as 0% with P388-R leukemia cells (50 mg/kg oral) and 30% with P388-R leukemia cells (100 mg/kg oral). Further, the “survival time using FP compared to FU” value in the series with P388-R leukemia cells (FU 25 and 50, FP 50 and 100 mg/kg oral) is listed as “as long using FP compared to FU”. Also, in series [2], the “effectiveness of FP compared with FU” value is “essentially the same as FU”. For the same molecule, the “Conversion of RPdR to RUdR” value with aldehyde oxidase was 20. For the same molecule, the “reduction in tumor size or reduction in its growth rate, FU versus FP” value with colon 38 cells is “comparable between FU and FP”. In the series with hepatic aldehyde oxidase [3], the “metabolism to FU by hepatic aldehyde oxidase in vivo” value is listed as “metabolizable to FU”. Besides, the “metabolism to FU by hepatic aldehyde oxidase in vitro” value in the series with hepatic aldehyde oxidase [4] is listed as “metabolizable to FU”.

For `O=c1[nH]cc(F)c(=O)[nH]1` [FU, 5-fluoro uracil, reference compound], the Death/Total in the series with BDF1 mice (50 mg/kg p.o.) was 5/5; in the series with BDF1 mice (75 mg/kg p.o.) it was 2/5; in the series on BDF1 mice (100 mg/kg p.o.) it was 1/5. Further, the 50% lethal dose (LD50) in series [1] stood at 70 mg/kg. The Cures/Total in the series on P388-R leukemia cells (25 mg/kg oral) and in the series on P388-R leukemia cells (50 mg/kg oral) was 0/5 throughout. In addition, the entries for the “ILS (increase in life span over controls)” value in the series with P388-R leukemia cells (25 mg/kg oral) and in the series on P388-R leukemia cells (50 mg/kg oral) were 5% and 25%, respectively. In addition, in the series on colon 38 cells, the “reduction in tumor size or reduction in its growth rate, FU versus FP” value is “comparable between FU and FP”.

The record behind these values is patent US5728684A, “Determination of prodrugs metabolizable by the liver and therapeutic use thereof” (priority 1994, dated 1998).
